Here are results for 14 compounds from publication PMC6631349 (Xenobiotica; the fate of foreign compounds in biological …, 2014).

For series [1], the system named is UGT1A3. To be noted: ref Fang et al., 2014b; cited from earlier work.
For series [2], the system named is UGT isoforms. In words: Initial screening towards all UGT isoforms. In kind it is biochemical, human. To be noted: about 50 μM; isoforms not given.
Series [3] deals with T1, UGT1A6 (Homo sapiens, UniProt P19224).
T1 sequence (P19224 27-532): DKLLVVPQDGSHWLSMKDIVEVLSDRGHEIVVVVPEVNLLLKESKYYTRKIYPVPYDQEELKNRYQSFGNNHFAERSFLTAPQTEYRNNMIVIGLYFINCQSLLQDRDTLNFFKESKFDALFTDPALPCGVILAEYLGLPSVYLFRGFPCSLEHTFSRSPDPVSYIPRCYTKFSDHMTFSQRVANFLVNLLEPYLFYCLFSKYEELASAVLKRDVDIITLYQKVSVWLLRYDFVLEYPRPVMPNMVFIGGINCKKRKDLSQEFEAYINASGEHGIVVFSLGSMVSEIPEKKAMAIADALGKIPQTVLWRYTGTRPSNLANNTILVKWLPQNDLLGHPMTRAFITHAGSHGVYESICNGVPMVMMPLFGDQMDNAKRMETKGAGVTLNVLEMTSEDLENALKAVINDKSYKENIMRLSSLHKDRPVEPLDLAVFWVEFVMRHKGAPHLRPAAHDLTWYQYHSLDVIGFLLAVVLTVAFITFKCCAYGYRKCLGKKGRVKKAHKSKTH
To be noted: 50 μM.

The target in series [4] is T2, UGT1A8 (Homo sapiens, UniProt Q9HAW9).
T2 sequence (Q9HAW9 26-530): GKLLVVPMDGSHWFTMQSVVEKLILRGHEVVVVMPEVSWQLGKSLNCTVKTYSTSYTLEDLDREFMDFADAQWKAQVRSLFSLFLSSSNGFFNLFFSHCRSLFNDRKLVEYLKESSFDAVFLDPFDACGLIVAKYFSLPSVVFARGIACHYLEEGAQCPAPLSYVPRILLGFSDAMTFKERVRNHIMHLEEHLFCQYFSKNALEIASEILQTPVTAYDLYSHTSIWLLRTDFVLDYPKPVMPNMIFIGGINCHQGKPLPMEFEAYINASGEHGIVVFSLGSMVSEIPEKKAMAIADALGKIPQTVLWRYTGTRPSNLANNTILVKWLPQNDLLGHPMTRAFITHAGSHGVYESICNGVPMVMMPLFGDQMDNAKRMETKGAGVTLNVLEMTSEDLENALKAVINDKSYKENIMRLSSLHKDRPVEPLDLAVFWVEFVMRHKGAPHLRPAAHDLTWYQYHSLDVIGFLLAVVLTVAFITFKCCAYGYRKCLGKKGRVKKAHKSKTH
To be noted: 50 μM.

Series [5] concerns the target T3, UGT2B7 (Homo sapiens, UniProt P16662).
T3 sequence (P16662 24-529): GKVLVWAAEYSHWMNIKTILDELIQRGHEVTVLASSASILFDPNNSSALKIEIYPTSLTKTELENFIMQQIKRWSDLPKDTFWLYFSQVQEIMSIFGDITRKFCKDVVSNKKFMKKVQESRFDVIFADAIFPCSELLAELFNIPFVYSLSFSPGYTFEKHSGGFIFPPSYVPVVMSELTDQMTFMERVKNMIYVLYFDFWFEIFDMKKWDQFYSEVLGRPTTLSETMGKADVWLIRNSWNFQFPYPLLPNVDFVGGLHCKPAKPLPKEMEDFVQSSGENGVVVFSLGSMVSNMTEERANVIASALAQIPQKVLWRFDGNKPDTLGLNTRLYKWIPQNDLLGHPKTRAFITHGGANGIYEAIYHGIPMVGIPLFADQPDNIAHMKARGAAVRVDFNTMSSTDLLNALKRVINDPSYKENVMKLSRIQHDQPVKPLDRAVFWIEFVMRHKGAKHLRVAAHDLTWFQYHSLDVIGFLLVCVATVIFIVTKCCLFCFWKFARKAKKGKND
To be noted: 50 μM.

In series [6] the test system is UGTs. To be noted: ref Dragacci et al. (1987); cited from earlier work.
Series [7] has as its target T2, UGT1A8. To be noted: Dixon and Lineweaver-Burk plots; 4-MU glucuronidation.
Series [8] concerns the target T1, UGT1A6. To be noted: Dixon and Lineweaver-Burk plots; 4-MU glucuronidation.
Series [9] addresses T4, UGT1A4 (Homo sapiens, UniProt P22310).
T4 sequence (P22310 29-534): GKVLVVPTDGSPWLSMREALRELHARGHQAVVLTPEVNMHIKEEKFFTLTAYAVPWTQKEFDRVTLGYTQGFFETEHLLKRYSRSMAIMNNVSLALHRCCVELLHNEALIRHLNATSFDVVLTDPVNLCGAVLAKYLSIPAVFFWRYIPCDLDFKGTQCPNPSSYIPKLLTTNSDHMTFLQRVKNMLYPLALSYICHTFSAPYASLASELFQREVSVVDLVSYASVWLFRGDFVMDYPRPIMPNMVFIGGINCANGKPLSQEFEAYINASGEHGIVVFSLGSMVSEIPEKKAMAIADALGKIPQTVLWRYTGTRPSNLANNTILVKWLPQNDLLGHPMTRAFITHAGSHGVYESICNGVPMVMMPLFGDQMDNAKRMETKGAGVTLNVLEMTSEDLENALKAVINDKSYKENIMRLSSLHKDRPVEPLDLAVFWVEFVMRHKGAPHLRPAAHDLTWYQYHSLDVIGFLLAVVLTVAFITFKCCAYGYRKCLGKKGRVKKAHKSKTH
In words: UGT1A4-catalyzed trifluoperazine. To be noted: recombinant human UGT1A4, probe trifluoperazine (TFP), 40 μM.

Series [10] deals with multiple UGT isoforms, including UGT1A1, UGT1A3, UGT1A4, UGT1A7, UGT1A10, UGT2B7 and UGT2B15. To be noted: ref Fang et al., 2013b; cited from earlier work.

Each structure is given as a SMILES string.

On to `C[C@H](CCC(=O)O)[C@H]1CC[C@H]2[C@@H]3[C@H](O)C[C@@H]4C[C@H](O)CC[C@]4(C)[C@H]3C[C@H](O)[C@]12C` [CA, cholic acid], for which the “effect on the activity of UGT1A3 (in words)” value in series [1] was “allosteric activation”.
With `C[C@H](CCC(=O)NCC(=O)O)[C@H]1CC[C@H]2[C@@H]3[C@H](O)C[C@@H]4C[C@H](O)CC[C@]4(C)[C@H]3C[C@H](O)[C@]12C` [GCA, glycocholic acid], the “effect on the activity of UGT1A3 (in words)” value in series [1] is “allosteric activation”.
As to `CCCCCCCCCCCCCCCC(=O)OC[C@@H](O)COP(=O)([O-])OCC[N+](C)(C)C` [LPC 16:0], the “inhibition of activity of UGT isoforms” value in series [2] is listed as “more than 90%”.
As for `CCCCCCCC/C=C\CCCCCCCC(=O)OC[C@@H](O)COP(=O)([O-])OCC[N+](C)(C)C` [LPC 18:1], the “inhibition percentage of UGT1A6 activity” value in [3] is recorded as 97.5%. In addition, the “inhibition percentage of UGT1A8 activity” value in [4] is on record as 98.7%. The “inhibition percentage of UGT2B7 activity” value in series [5] was 87.3%. Moreover, the “increase for UGTs' activity (maximal regulation capability)” value in [6] was “approximately 4 fold”. The “inhibition of activity of UGT isoforms” value in series [2] was “more than 90%”.
`CCCCCCCCCCCCCCCC(=O)OC[C@H](COP(=O)([O-])OCC[N+](C)(C)C)OC(C)=O` [PC 16:0, 2:0, 1-palmitoyl-2-acetyl-sn-glycero-3-phosphocholine]: the “inhibition kinetic type towards UGT1A8” value in [7] was “non-competitively inhibited”. Besides, the “inhibition of activity of UGT isoforms” value in [2] is “more than 90%”. Moreover, the “inhibition kinetic type towards UGT1A6” value in [8] is “competitive inhibition”. For the same compound, in [9], the activity at 20 min, 50 μM turned out to be 5.5% and the inhibition at 20 min, 50 µM worked out at 94.5%.
With `CCCCCCCCCCCCCCCC(=O)OC[C@H](COP(=O)([O-])OCC[N+](C)(C)C)OC(=O)CCCCCCCCCCCCC` [PC 16:0, 14:0, 1-palmitoyl-2-myristoyl-sn-glycero-3-phosphocholine], the activity at 20 min, 50 μM in series [9] is 63.8%.
Same read-out and setting: the value for `CCCCCCCCCCCCCCCCCC(=O)O[C@H](COC(=O)CCCCCCCCCCCCCCC)COP(=O)([O-])OCC[N+](C)(C)C` [PC 16:0, 18:0, 1-palmitoyl-2-stearoyl-sn-glycero-3-phosphocholine] was 90%; that for `CCCCCCCC/C=C\CCCCCCCC(=O)O[C@H](COC(=O)CCCCCCCCCCCCCCC)COP(=O)([O-])OCC[N+](C)(C)C` [PC 16:0, 18:1, 1-palmitoyl-2-oleoyl-sn-glycero-3-phosphocholine] was 51.8%.
Take `CCCCC/C=C\C/C=C\CCCCCCCC(=O)O[C@H](COC(=O)CCCCCCCCCCCCCCCCC)COP(=O)([O-])OCC[N+](C)(C)C` [PC 18:0, 18:2, 1-stearoyl-2-linoleoyl-sn-glycero-3-phosphocholine]: in series [9], the activity at 20 min, 50 μM was 54.3%.
Same read-out and setting: the value for `CCCCC/C=C\C/C=C\C/C=C\C/C=C\CCCC(=O)O[C@H](COC(=O)CCCCCCCCCCCCCCCCC)COP(=O)([O-])OCC[N+](C)(C)C` [PC 18:0, 20:4, 1-stearoyl-2-arachidonoyl-sn-glycero-3-phosphocholine] was 52.1%; that for `CCCCCCCC/C=C\CCCCCCCC(=O)OC[C@H](COP(=O)([O-])OCC[N+](C)(C)C)OC(=O)CCCCCCCCCCCCC` [PC 18:1, 14:0, 1-oleoyl-2-myristoyl-sn-glycero-3-phosphocholine] was 49.8%; that for `CCCCCCCC/C=C\CCCCCCCC(=O)OC[C@H](COP(=O)([O-])OCC[N+](C)(C)C)OC(=O)CCCCCCCCCCCCCCC` [PC 18:1, 16:0, 1-oleoyl-2-palmitoyl-sn-glycero-3-phosphocholine] was 52.6%.
For `CCCCCCCC/C=C\CCCCCCCC(=O)OC[C@H](COP(=O)([O-])OCC[N+](C)(C)C)OC(=O)CCCCCCCCCCCCCCCCC` [PC 18:1, 18:0, 1-oleoyl-2-stearoyl-sn-glycero-3-phosphocholine], the activity at 20 min, 50 μM in series [9] was 60.4%.
In the case of `C[C@H](CCC(=O)NCCS(=O)(=O)O)[C@H]1CC[C@H]2[C@@H]3CC[C@@H]4C[C@H](O)CC[C@]4(C)[C@H]3CC[C@]12C` [TLCA, taurolithocholic acid], the “inhibitory effects towards multiple UGT isoforms (in words)” value in series [10] was “strong inhibitory effects”.
